# Measured values published in patent US20020091086A1, “Peptides that block viral infectivity and methods of use thereof” (priority 1999, published 2002).
# Read-outs that look alike come from different tables or passages of the source. Peptide text beside a SMILES is read from it.
# Columns and labels:
# HIV-1 = details: 100 μM, HUT78 cells; for p24 / reduction (%): Experiment 6, Day 7 HIV-1; for HIV-1 infection, result in words: summary of Experiment 6
# Experimental: In experiment 6 (Table 7 and FIG. 1), approximately 200,000 HUT78 cells were infected with HIV-1 at 25 TCID50 to test the inhibitory effect of GPG-NH2, RQG-NH2, KQG-NH2, ALG-NH2, GVG-NH2, VGG-NH2, ASG-NH2, SLG-NH2, and SPT-NH2. The HUT cells were resuspended in lml of RPMI 1640 medium supplemented with 10% (v/v) heat-inactivated fetal bovine serum (FBS, GIBCO), penicillin (100 u/ml), streptomycin (100 u/ml) and Polybrene (Sigma, 2 μg/ml) with or without the presence of the different small peptides (100 μM) mentioned above. Thereafter, the HIV-1 virus was added at 25 TCID50 in a volume of 20 μl. Cells were incubated with the virus at 37° C. for one hour and, subsequently, the cells were pelleted at 170×g for seven minutes. The cells were then washed three times in RPMI medium without peptides at room temperature by cell sedimentation at 170×g for seven minutes, as above. After the final wash, the cells were resuspended in RPMI culture medium containing the peptides in 24-well plate (Costar corporation) and were kept at 37° C. in 5% CO2 with humidity. Culture supernatants were collected when medium was changed at day 4, 7, and 11 post infection and viral p24 production was monitored by using an HIV-1 p24 ELISA kit (Abbott Laboratories, North Chicago, USA).
# [1] = system: HIV-1 isolate p7300 (low PI); experiment: resistant HIV-1 isolates in PBMC, p24 ELISA; type: cell-based; details: Rito 0.1 μM, 14 days post infection
# HIV-1 SF-2 virus = experiment: electron microscopy of HIV-1 particles from infected HUT78 cells; type: cell-based; details: 0.5μM; cells fixed day 14
# Experimental: In this set of experiments, HUT78 cells were infected with HIV-1 SF-2 virus at 300TCID50 for 1 hr at 37° C. Subsequently, the infected cells were washed and pelleted 3 times, as described in Example 2. Thereafter, the cells were resuspended in RPMI culture medium supplemented with 10% FBS, antibiotics (100 u/ml) and polybrene (3.2 μg/ml). GPG-NH2 was then added into the cell cultures 3, 5 or 7 days post infection at concentration of 1 μM or 10 μM. A control sample was administered 0.5μM Ritonavir (a protease inhibitor).
# The cells were cultured until day 14, at which point, the cells were fixed in 2.5% glutaraldehyde by conventional means. The fixed cells were then postfixed in 1% OSO4 and were dehydrated, embedded with epoxy resins, and the blocks were allowed to polymerize. Epon sections of virus infected cells were made approximately 60-80 nm thin in order to accommodate the width of the nucleocapsid. The sections were mounted to grids stained with 1.0% uranyl acetate and were analyzed in a Zeiss CEM 902 microscope at an accelerating voltage of 80 kV. The microscope was equipped with a spectrometer to improve image quality and a liquid nitrogen cooling trap was used to reduce beam damage. The grids having sections of control and GPG-NH2 incubated cells were examined in several blind studies.
# [2] = system: HIV-1 isolate p7141 (high PI); experiment: resistant HIV-1 isolates in PBMC, p24 ELISA; type: cell-based; details: Rito 0.1 μM, 14 days post infection
Compound,p24 (HIV-1),reduction (%) (HIV-1),"HIV-1 infection, result in words (HIV-1)",also measured
"N=C(N)NCCC[C@H](N)C(=O)N[C@@H](CCC(N)=O)C(=O)NCC(N)=O [RQG-NH2, arginyl-glutaminyl-glycine amide] (H-Arg-Gln-Gly-NH2)",113 pg/mL,~100%,inhibited and/or prevented HIV-1 infection,reduction (%) (HIV-1; listed as RQG—NH2): 99%
"NCCCC[C@H](N)C(=O)N[C@@H](CCC(N)=O)C(=O)NCC(N)=O [KQG-NH2, lysyl-glutaminyl-glycine amide] (H-Lys-Gln-Gly-NH2)",154 pg/mL,~100%,inhibited and/or prevented HIV-1 infection,reduction (%) (HIV-1; listed as KQG—NH2): 99%
"CC(C)[C@H](N)C(=O)NCC(=O)NCC(N)=O [VGG-NH2, valyl-glycyl-glycine amide] (H-Val-Gly-Gly-NH2)",10000 pg/mL,50%,–,–
"CC(C)C[C@H](NC(=O)[C@@H](N)CO)C(=O)NCC(N)=O [SLG-NH2, seryl-leucyl-glycine amide] (H-Ser-Leu-Gly-NH2)",114 pg/mL,~100%,inhibited and/or prevented HIV-1 infection,reduction (%) (HIV-1; listed as SLG—NH2): 99%
"C[C@H](N)C(=O)N[C@@H](CO)C(=O)NCC(N)=O [ASG-NH2, alanyl-seryl-glycine amide] (H-Ala-Ser-Gly-NH2)",15000 pg/mL,25%,–,–
"CC(C)[C@H](NC(=O)CN)C(=O)NCC(N)=O [GVG-NH2, glycyl-valyl-glycine amide] (H-Gly-Val-Gly-NH2)",15000 pg/mL,25%,–,–
"C[C@@H](O)[C@H](NC(=O)[C@@H]1CCCN1C(=O)[C@@H](N)CO)C(N)=O [SPT-NH2, seryl-prolyl-threonine amide] (H-Ser-Pro-Thr-NH2)",15000 pg/mL,25%,–,–
"CC(C)c1nc(CN(C)C(=O)N[C@H](C(=O)N[C@@H](Cc2ccccc2)C[C@H](O)[C@H](Cc2ccccc2)NC(=O)OCc2cncs2)C(C)C)cs1 [Ritonavir, reference compound]",–,–,–,"% reduction [1]: (56%); HIV-1 p24 [1]: 64000 pg/mL; viral particle structure, electron microscopy (HIV-1 SF-2 virus): malformed structures that did not have a discemable nucleocapsid; % reduction [2]: (14%); HIV-1 p24 [2]: 98000 pg/mL"
